Where two headings read alike, the source gives them in different places. Where only a bound is given, the exact number is not on record here.

Series [1] relates to A375 (a human melanoma) cell line. In words: MTT cytotoxicity assay, A375. The settings on record: for IC50: read-out: Cytotoxicity (IC50 ± SEM) against A375; for Viability inhibition, A375: concentration not given. It counts as cell-based. On the procedure: (§1) In this study, A375 (a human melanoma), HT29 (a human colon adenocarcinoma), and HFF (a human foreskin fibroblast) cell lines were provided from the Pasteur Institute (Iran). […] 10 mM stock solutions of compounds were prepared in DMSO and diluted in a fresh medium for use. The final concentration of DMSO never exceeded 0.1% (v/v). […] Then the medium was replaced with the respective medium containing ligands or Tl(III) complexes at different concentrations and incubated for 48 h. 10 μL of MTT was added and the medium was removed after 4 h of incubation. Finally, the violet crystal was solubilized in 100 μL DMSO and the absorbance was measured at 570 nm. IC50 value was measured by the standard method. The evaluations were carried out in triplicate[21],[23].
(Tetrazolium dyes change colour on reduction, which living cells bring about.)

Series [2] can be described thus: MTT cytotoxicity assay, HFF. It counts as cell-based, human. Conditions: human. On the procedure: as §1
The subject of series [3] is HT29 (a human colon adenocarcinoma) cell line. In words: MTT cytotoxicity assay, HT29. It counts as cell-based. Conditions: read-out: Cytotoxicity (IC50 ± SEM) against HT29. On the procedure: as §1
Series [4] has as its system HFF (a human foreskin fibroblast) cell line. In words: MTT cytotoxicity assay, HFF. It counts as cell-based. Conditions: MTT, 48 h; read-out: Cytotoxicity (IC50 ± SEM) against HFF. On the procedure:
as §1

Series [5] is described as follows: Cyclic voltammetry of the complexes. It counts as physicochemical. Conditions: versus Ag/AgCl, KCl 0.1 M, GCE, scan rate 50 V/s; for formal potential E0': 4 × 10^–3 mol/dm^3 in H2O; for EA (anodic peak potential) / EC (cathodic peak potential): H2O. The source says: The electrochemical behavior of the complexes and also their ligands was studied by the cyclic voltammograms in the potential range of + 1.5 to –1.5 V and a scan rate of 50 Vs^–1. […] Redox couples at E^0ˊ 0.109, –0.051, and 0.244 V were obtained for C1, C2, and C3, respectively. The electrochemical oxidation of all three complexes seems be a one-stage process which includes irreversible couples with EC = –0.363 V, EA = 0.472 V for C1, EC = –0.271 V, EA = 0.220 V for C2 and EC = –0.337 V, EA = 0.581 V for C3. The peaks can be interpreted according to the Tl(III)/Tl(I) redox system for complexes. […] Therefore, redox couples are related to only the metal centers in complexes[27],[28].
Figure 4 Cyclic voltammogram of complexes c = 4 × 10^–3 mol/dm^3 in H2O medium, KCl (0.1 M) at GCE, scan rate 50 V/s.
Pyridine-2,6-dicarboxylic acid, 4-hydroxy-pyridine-2,6-dicarboxylic acid, 2-aminobenzimidazole, 4-aminopyridine, and thallium(III) nitrate trihydrate were purchased from the commercial sources and were used as received. The solvents were distilled for all synthetic works. Melting points were obtained on an Electrothermal IA-9100 apparatus. The FT-IR spectra were recorded on a Bruker Vector 22 FT-IR spectrometer using KBr pellets. Electronic spectra were recorded on Specord 210, Analytik Jena spectrophotometer in the range of 200–900 nm at room temperature. The ^1HNMR spectra were obtained from Bruker Ultrashield 400 spectrometer. Microanalyses (C, H, N) were measured with a Perkin-Elmer 2004(II) elemental analyzer. Electrochemical experiments were performed using a µAUTOLAB modular electrochemical system (ECO Chemie, Utrecht, the Netherlands) equipped with a PGSTAT type III module driven by GPES software in conjunction with a conventional three-electrode system an Ag/AgCl/3 M KCl and platinum wire as reference and counter electrode respectively and a GC as the working electrode.

A further series relates to procaspase-9. In words: Western blot, procaspase-9 in A375 cells. It counts as cell-based, human. Conditions: A375, IC50 concentrations, 24 h, densitometry. On the procedure: (§2) After incubation with C1 and C3 at IC50 concentrations for 24 h, A375 cells were harvested and lysed in 150 μL of lysis buffer (149 μL RIPA and 1 μL PMSF), and then placed on ice for 15 min. Total proteins were extracted by centrifuging the cell sample at 10,000 rpm and 4 °C for 10 min. Then about 50 μg of purified proteins were mixed with an equal volume of electrophoresis sample buffer, and the mixture was heated for 10 min. Meanwhile, the equal protein content from the control cells was prepared in the same way. The cell sample (10 μL) was loaded onto 10% SDS-PAGE gels and then transferred onto a microporous polyvinylidene difluoride (PVDF) membrane. The membrane was blocked with 5% BSA in TBST buffer for more than 2 h. After the removal of TBST buffer, membranes were incubated with an appropriate dilution of specific primary antibodies in TBST overnight at 4 °C and then washed with TBST three times. The membranes were incubated with secondary antibodies for 1 h and washed with TBST. The immunoreactive signals were detected using an enhanced chemo-luminance kit (Pierce ECL Western Blotting Substrate) following the procedures given in the user manual[46],[63].
A general note: Immunoblotting shows a protein as a band on a membrane.

Series [6] concerns A375 cells. In words: Mitochondrial membrane potential assay (JC-1), A375. Conditions: A375, IC50 concentrations, JC-1, 24 h. It counts as cell-based, human. On the procedure: Mitochondrial membrane potential analysis was determined by fluorescent dye JC-1 staining according to the manufacturer's protocol for the JC-1 assay kit. In brief, 2 mL of A375 cells (1 × 10^5 cells/mL) were treated with IC50 concentrations of C1 and C3 in 6-well plates for […]. Cells were harvested and washed three times with PBS after 24 h of incubation. Then cells were stained with 1 mL of JC-1 stock solution (10 mg/mL). Assays were initiated by incubating A375 cells with JC-1 for 30 min at 37 °C in the dark and detected with a fluorescence microscope. This test was performed as explained on HFF cells treatment to C3 (at the highest concentration).

The subject of series [7] is A375 cells. In words: Intracellular ROS (H2DCF-DA, flow cytometry), A375. Conditions: A375, IC50 concentrations, 24 h. It counts as cell-based, human. On the procedure:
The generation of intracellular ROS was evaluated by reactive oxygen species assay kit. 2 mL of A375 cells (1 × 10^6 cells/mL) were induced with C1–C3 (at IC50 concentrations) at 37 °C for 24 h, serum-free medium washed twice. Then, the cells were incubated in 2 mL of serum-free medium containing H2DCF-DA (2 μM) for 30 min at 37 °C, serum-free medium washed twice. Cells were collected and assayed by flow cytometer with excitation wavelength at 489 nm and emission wavelength at 524 nm, and ten thousand events were collected. The DCF fluorescence peak for this cell sample was evaluated and data were analyzed by FlowJo software. This test was performed as explained on HFF cells treatment to C3 (at the highest concentration)[38].

Series [8] relates to A375 cells. In words: Apoptosis by Annexin-V/PI staining. It counts as cell-based, human. The settings on record: A375, IC50 concentrations, 24 h. On the procedure: Annexin V-FITC and PI staining (Annexin V/PI) apoptosis detection kit were used for assessing the percentage of dead cells by apoptosis pathway. Briefly, A375 cells were treated with C1 and C3 at IC50 concentrations. After 24 h of incubation, cells were washed with PBS, trypsinized, centrifuged, and re-suspended in 100 μL binding buffer at a concentration of 1 × 10^6 cells/mL, then added 5 μL of annexin V-FITC conjugate (30 min), and 5 μL of Propidium Iodide (PI) to each cell suspension (20 min) in the dark. The samples were analyzed using a flow cytometer (Attune Nxt, Thermo Fisher Scientific-US), and the results were assessed using the FlowJo software.

Series [9] deals with A375 cells. In words: Cell cycle analysis (PI, flow cytometry), A375. Conditions: A375, IC50 concentrations, 24 h; with respect to untreated control cells. It counts as cell-based, human. On the procedure:
A375 cells were seeded in 6-well plates with 1.5 × 10^6 cells /well and treated with the C1 and C3 at IC50 concentrations for 24 h. Cells were trypsinized, collected, and fixed in ice-cold 75% ethanol at − 20 °C overnight. After centrifugation, the fixed cells were rinsed with ice-cold phosphate-buffered saline (PBS) and resuspended in 0.5 mL of PBS containing 100 μg/mL DNase-free RNase A (Thermo Fisher Scientific Biosciences GmbH, St. Leon-Rot, Germany), 50 μg/mL propidium iodide (PI; Sigma Aldrich) in the dark for 30 min. The distribution of the cells in different phases of the cell cycle was determined using flow cytometry (Attune Nxt, Thermo Fisher Scientific-US) and FlowJo software v10.6.1 (https://www.flowjo.com/solutions/flowjo/downloads) was used to analyze the data. This test was performed as explained on HFF cells treatment to C3 (at the highest concentration)[62].
(Flow cytometry measures light scatter and fluorescence of single cells or particles in a stream.)

The next series concerns Bax/Bcl-2. In words: Western blot, Bax/Bcl-2 ratio in A375 cells. It counts as cell-based, human. The settings on record: A375, IC50 concentrations, 24 h. On the procedure: as §2
For a further series, the system named is p53. In words: Western blot, p53 in A375 cells. It counts as cell-based, human. The settings on record: A375, IC50 concentrations, 24 h. On the procedure:
as §2

Setting [10] is: MTT, 48 h, read-out: Cytotoxicity (IC50 ± SEM) against HFF.

On to `Nc1nc2ccccc2[nH]1` [2-ab, 2-aminobenzimidazole], for which the IC50 in series [1] (Homo sapiens, A-375, 48 h) is over 500 µM; in [3] (Homo sapiens, HT-29, 48 h) it was over 500 µM. The molecule further returned an IC50 at 48 h in [2] of over 500 µM.

Take `Nc1ccncc1` [4-apy, 4-aminopyridine]: the IC50 is 491.9 ± 1.56 µM in [1] (Homo sapiens, A-375, MTT, 48 h); over 500 µM in [2] (setting [10]); over 500 µM in series [3] (Homo sapiens, HT-29, MTT, 48 h).

Turning to `O=C1[O][Pt]2([NH][C@@H]3CCCC[C@H]3[NH]2)[O]C1=O` [Oxaliplatin, reference compound], the IC50 in series [1] (MTT, 48 h) was 331 ± 2.69 µM; in [4] it was 429.2 ± 2.32 µM; in series [3] (MTT, 48 h), 323.1 ± 2.87 µM.

`O=C(O)c1cc(O)cc(C(=O)O)n1` [hpydcH2, 4-hydroxy-pyridine-2,6-dicarboxylic acid]: the IC50 in [1] (Homo sapiens, A-375, MTT, 48 h) is over 500 µM; in series [2] (setting [10]) it was over 500 µM; in series [3] (Homo sapiens, HT-29, MTT, 48 h), over 500 µM.

For the molecule `O=C(O)c1cccc(C(=O)O)n1` [pydcH2, 2,6-Pyridinedicarboxylic acid], the IC50 was 442.6 ± 1.22 µM in series [1] (Homo sapiens, A-375, 48 h) and 430.2 ± 2.09 µM in series [3] (Homo sapiens, HT-29, 48 h). In addition, the IC50 at 48 h in [2] (setting [10]) is over 500 µM.

As for (2-abH)2[Tl(pydc)2(H2O)2]2∙11H2O [C1], in series [1] (MTT, 48 h), the “Viability inhibition, A375” value is on record as 55.44% and the IC50 was 81.5 ± 1.02 µM. For the same molecule, in [5], the “formal potential E0'” value is 0.109 V, the “EA (anodic peak potential)” value was found to be 0.472 V and the “EC (cathodic peak potential)” value is listed as “–0.363 V”. Moreover, the 50% inhibitory concentration (IC50) in [4] was over 500 µM. The “procaspase-9 level compared to control” value in the series on procaspase-9 is on record as 64.12%. Besides, in the series with A375 cells [6], the “mitochondrial membrane potential (MMP) in A375 cells” value is listed as “MMP reduction”. Further, the IC50 in series [3] (MTT, 48 h) worked out at 354.4 ± 0.71 µM. Also, the “ROS level (DCF oxidation), more effective than vehicle control-treated” value with A375 cells [7] is on record as 189.9%. In the series on A375 cells [8], the “apoptosis, more effective than vehicle control-treated” value amounted to 62.24%; the “early apoptosis (annexin V+/PI-, Q3)” value was determined as 14.22%; the “late apoptosis (annexin V+/PI+, Q2)” value was 48.01%. Besides, the “rise in the cellular population of the G2-M phase” value in the series on A375 cells [9] came to 16.91%. In addition, the “ratio of Bax/Bcl-2” value in the series with Bax/Bcl-2 was determined as 3.60 fold. Moreover, the “level of p53” value in the series with p53 is recorded as “significantly enhanced”.

On to (2-abH)[Tl(hpydc)2(H2O)2]∙6H2O [C2], for which, in [1] (MTT, 48 h), the “Viability inhibition, A375” value came out at 35.28% and the IC50 is 421.1 ± 0.55 µM. Also, in [5], the “formal potential E0'” value is listed as “–0.051 V”, the “EA (anodic peak potential)” value is on record as 0.220 V and the “EC (cathodic peak potential)” value was “–0.271 V”. Besides, the IC50 in series [4] is over 500 µM. Moreover, the IC50 in series [3] (MTT, 48 h) worked out at 486.2 ± 0.69 µM. The “ROS level (DCF oxidation), more effective than vehicle control-treated” value in the series with A375 cells [7] is 23.5%.

As usually defined, the IC50 is the point on the concentration scale where inhibition reaches its midpoint.

The record behind these values is paper PMC8333620, “Novel Tl(III) complexes containing pyridine-2,6-dicarboxylate derivatives with selective anticancer activity through inducing mitochondria-mediated apoptosis in A375 cells” (Scientific Reports, 2021).
